Experiments:
IP6K1 = IP6K1 (Homo sapiens (Human), UniProt Q92551); assay: IP6K1 IC50 of compounds of Formula (IA) and Formula (IB); type: biochemical
Mice treated with HFD = conditions: HFD 8 weeks then daily intraperitoneal 20 mg/kg TNP and HFD for 18 days; cited from earlier work

IP6K1, sequence (Q92551 whole entry, species assumed): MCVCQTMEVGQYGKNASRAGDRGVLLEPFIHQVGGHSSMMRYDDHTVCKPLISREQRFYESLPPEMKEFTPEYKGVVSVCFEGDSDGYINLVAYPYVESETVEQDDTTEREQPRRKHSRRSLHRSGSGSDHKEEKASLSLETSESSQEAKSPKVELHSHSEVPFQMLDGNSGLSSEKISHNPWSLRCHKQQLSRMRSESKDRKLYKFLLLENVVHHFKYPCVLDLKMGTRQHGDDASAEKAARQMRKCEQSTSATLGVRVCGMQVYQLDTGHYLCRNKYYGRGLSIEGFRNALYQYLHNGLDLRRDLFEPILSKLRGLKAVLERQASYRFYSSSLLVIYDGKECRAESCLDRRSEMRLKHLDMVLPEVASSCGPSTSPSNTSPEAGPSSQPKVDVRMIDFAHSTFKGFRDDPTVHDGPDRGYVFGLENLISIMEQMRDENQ

Row | SMILES | IP6K1 IC50 (IP6K1) | further results
1 | O=C(O)c1ccc2c(c1)C1(CCN(S(=O)(=O)c3ccc(Cl)cc3)CC1)C(=O)N2 [Cmpd 1a, 1′-((4-chlorophenyl)sulfonyl)-2-oxospiro[indoline-3,4′-piperidine]-5-carboxylic acid] | + + | –
2 | O=C(O)c1ccc2c(c1)C1(CCN(C(=O)c3ccc(Cl)cc3)CC1)C(=O)N2 [Cmpd 2a, 1′-(4-chlorobenzoyl)-2-oxospiro[indoline-3,4′-piperidine]-5-carboxylic acid] | + + + | –
3 | COC(=O)c1ccc2c(c1)C1(CCN(C(=O)c3ccc(Cl)cc3)CC1)C(=O)N2 [Cmpd 3a, Methyl 1′-(4-chlorobenzoyl)-2-oxospiro[indoline-3,4′-piperidine]-5-carboxylate] | – | IC50 (IP6K1): 3 to 30 µM
4 | O=C(O)c1ccc2c(c1)C1(CCN(C(=O)Cc3ccc(Cl)cc3)CC1)C(=O)N2 [Cmpd 4a, 1′-(2-(4-chlorophenyl)acetyl)-2-oxospiro[indoline-3,4′-piperidine]-5-carboxylic acid] | + + | –
5 | O=C(O)c1ccc2c(c1)C1(CCN(C(=O)c3ncc(Cl)cc3Cl)CC1)C(=O)N2 [Cmpd 6a, 1′-(3,5-dichloropicolinoyl)-2-oxospiro[indoline-3,4′-piperidine]-5-carboxylic acid] | + + + | –
6 | O=C(O)c1ccc2c(c1)C1(CCN(C(=O)Nc3ccc(Cl)cc3)CC1)C(=O)N2 [Cmpd 7a, 1′-((4-chlorophenyl)carbamoyl)-2-oxospiro[indoline-3,4′-piperidine]-5-carboxylic acid] | + + + | –
7 | O=C(O)c1ccc2c(c1)C1(CCN(C(=O)c3ccc(C(F)(F)F)cc3)CC1)C(=O)N2 [Cmpd 8a, 2-oxo-1′-(4-(trifluoromethyl)benzoyl)spiro[indoline-3,4′-piperidine]-5-carboxylic acid] | + + + | –
8 | O=C(O)c1ccc2c(c1)C1(CCN(C(=O)COc3ccc(Cl)cc3)CC1)C(=O)N2 [Cmpd 9a, 1′-(2-(4-chlorophenoxy)acetyl)-2-oxospiro[indoline-3,4′-piperidine]-5-carboxylic acid] | + + | –
9 | O=C(O)c1ccc2c(c1)C1(CCN(C(=O)C3CC3)CC1)C(=O)N2 [Cmpd 10a, 1′-(cyclopropanecarbonyl)-2-oxospiro[indoline-3,4′-piperidine]-5-carboxylic acid] | – | IC50 (IP6K1): 3 to 30 µM
10 | CC(=O)N1CCC2(CC1)C(=O)Nc1ccc(C(=O)O)cc12 [Cmpd 12a, 1′-acetyl-2-oxospiro[indoline-3,4′-piperidine]-5-carboxylic acid] | – | IC50 (IP6K1): 3 to 30 µM
11 | CC(C)C(=O)N1CCC2(CC1)C(=O)Nc1ccc(C(=O)O)cc12 [Cmpd 13a, 1′-isobutyryl-2-oxospiro[indoline-3,4′-piperidine]-5-carboxylic acid] | – | IC50 (IP6K1): 3 to 30 µM
12 | O=C(O)c1ccc2c(c1)C1(CCN(C(=O)c3ccccc3Cl)CC1)C(=O)N2 [Cmpd 14a, 1′-(2-chlorobenzoyl)-2-oxospiro[indoline-3,4′-piperidine]-5-carboxylic acid] | + + | –
13 | O=C(O)c1ccc2[nH]c(=O)n(CC3CCN(Cc4ccc(Cl)cc4Cl)C3)c2c1 (stereo not drawn) [Cmpd 18b, 3-((1-(2,4-dichlorobenzyl)pyrrolidin-3-yl)methyl)-2-oxo-2,3-dihydro-1H-benzo[d]imidazole-5-carboxylic acid] | – | IC50 (IP6K1): 3 to 30 µM
14 | O=[N+]([O-])c1ccc(CNc2nc(NCc3cccc(C(F)(F)F)c3)nc3nc[nH]c23)cc1 [TNP, N2-(m-trifluorobenzyl)-N6-(p-nitrobenzyl)purine] | – | glucose tolerance and insulin sensitivity (Mice treated with HFD): improved; serum insulin levels (Mice treated with HFD): lower

Now from value to compound, other results behind:

Row | IP6K1 IC50 (IP6K1) | SMILES | further results
15 | + + | O=C(O)c1ccc2[nH]c(=O)n(C3CCN(C(=O)c4ccccc4Cl)CC3)c2c1 [Cmpd 1b, 3-(1-(2-chlorobenzoyl)piperidin-4-yl)-2-oxo-2,3-dihydro-1H-benzo[d]imidazole-5-carboxylic acid] | –
16 | + + + | O=C(O)c1ccc2[nH]c(=O)n(C3CCN(C(=O)c4ccc(Cl)cc4Cl)CC3)c2c1 [Cmpd 3b, 3-(1-(2,4-dichlorobenzoyl)piperidin-4-yl)-2-oxo-2,3-dihydro-1H-benzo[d]imidazole-5-carboxylic acid] | –
17 | + + | O=C(O)c1ccc2c(c1)C1(CCN(Cc3ccc(Cl)cc3)CC1)C(=O)N2 [Cmpd 5a, 1′-(4-chlorobenzyl)-2-oxospiro[indoline-3,4′-piperidine]-5-carboxylic acid] | –
18 | + + + | O=C(O)c1ccc2[nH]c(=O)n([C@H]3CC[C@H](Oc4ncc(Cl)cc4Cl)CC3)c2c1 [Cmpd 5b, 3-((1r,4r)-4-((3,5-dichloropyridin-2-yl)oxy)cyclohexyl)-2-oxo-2,3-dihydro-1H-benzo[d]imidazole-5-carboxylic acid] | –
19 | + + + | O=C(O)c1ccc2[nH]c(=O)n([C@H]3CC[C@@H](Oc4ncc(Cl)cc4Cl)CC3)c2c1 [Cmpd 6b, 3-((1s,4s)-4-((3,5-dichloropyridin-2-yl)oxy)cyclohexyl)-2-oxo-2,3-dihydro-1H-benzo[d]imidazole-5-carboxylic acid] | –
20 | + + + | O=C(O)c1cc2c(cc1F)[nH]c(=O)n2[C@H]1CC[C@H](Oc2ncc(Cl)cc2Cl)CC1 [Cmpd 7b, 3-((1r,4r)-4-((3,5-dichloropyridin-2-yl)oxy)cyclohexyl)-6-fluoro-2-oxo-2,3-dihydro-1H-benzo[d]imidazole-5-carboxylic acid] | –
21 | + + | O=C(O)c1ccc2[nH]c(=O)n(CCOc3ccc(Cl)cc3)c2c1 [Cmpd 8b, 3-(2-(4-chlorophenoxy)ethyl)-2-oxo-2,3-dihydro-1H-benzo[d]imidazole-5-carboxylic acid] | –
22 | + + + | O=C(O)c1ccc2[nH]c(=O)n(CCCOc3ncc(Cl)cc3Cl)c2c1 [Cmpd 9b, 3-(3-((3,5-dichloropyridin-2-yl)oxy)propyl)-2-oxo-2,3-dihydro-1H-benzo[d]imidazole-5-carboxylic acid] | –
23 | + + | O=C(O)c1ccc2[nH]c(=O)n(C3CN(C(=O)c4ccc(Cl)cc4Cl)C3)c2c1 [Cmpd 10b, 3-(1-(2,4-dichlorobenzoyl)azetidin-3-yl)-2-oxo-2,3-dihydro-1H-benzo[d]imidazole-5-carboxylic acid] | –
24 | + + | O=C(O)c1ccc2[nH]c(=O)n(C3CN(Cc4ccc(Cl)cc4Cl)C3)c2c1 [Cmpd 11b, 3-(1-(2,4-dichlorobenzyl)azetidin-3-yl)-2-oxo-2,3-dihydro-1H-benzo[d]imidazole-5-carboxylic acid] | –
25 | + + | O=C(O)c1ccc2[nH]c(=O)n([C@H]3CCN(C(=O)c4ccc(Cl)cc4Cl)C3)c2c1 [Cmpd 12b, (S)-3-(1-(2,4-dichlorobenzoyl)pyrrolidin-3-yl)-2-oxo-2,3-dihydro-1H-benzo[d]imidazole-5-carboxylic acid] | –
26 | + + | O=C(O)c1ccc2[nH]c(=O)n([C@H]3CCN(Cc4ccc(Cl)cc4Cl)C3)c2c1 [Cmpd 13b, (S)-3-(1-(2,4-dichlorobenzyl)pyrrolidin-3-yl)-2-oxo-2,3-dihydro-1H-benzo[d]imidazole-5-carboxylic acid] | –
27 | + + | O=C(O)c1ccc2[nH]c(=O)n([C@@H]3CCN(C(=O)c4ccc(Cl)cc4Cl)C3)c2c1 [Cmpd 14b, (R)-3-(1-(2,4-dichlorobenzoyl)pyrrolidin-3-yl)-2-oxo-2,3-dihydro-1H-benzo[d]imidazole-5-carboxylic acid] | –
28 | + + | O=C(O)c1ccc2c(c1)C1(CCN(Cc3ccccc3Cl)CC1)C(=O)N2 [Cmpd 15a, 1′-(2-chlorobenzyl)-2-oxospiro[indoline-3,4′-piperidine]-5-carboxylic acid] | –
29 | + + | O=C(O)c1ccc2[nH]c(=O)n([C@@H]3CCN(Cc4ccc(Cl)cc4Cl)C3)c2c1 [Cmpd 15b, (R)-3-(1-(2,4-dichlorobenzyl)pyrrolidin-3-yl)-2-oxo-2,3-dihydro-1H-benzo[d]imidazole-5-carboxylic acid] | –
30 | + + | O=C(O)c1ccc2c(c1)[nH]c(=O)n2C1CCN(C(=O)c2ccc(Cl)cc2Cl)CC1 [Cmpd 16b, 1-(1-(2,4-dichlorobenzoyl)piperidin-4-yl)-2-oxo-2,3-dihydro-1H-benzo[d]imidazole-5-carboxylic acid] | –
31 | + + + | O=C(O)c1ccc2c(c1)C1(CCN(C(=O)c3ccc(Cl)cc3Cl)CC1)C(=O)N2 [Cmpd 17a, 1′-(2,4-dichlorobenzoyl)-2-oxospiro[indoline-3,4′-piperidine]-5-carboxylic acid] | –
32 | + + | O=C(O)c1ccc2[nH]c(=O)n(CC3CCN(C(=O)c4ccc(Cl)cc4Cl)C3)c2c1 (stereo not drawn) [Cmpd 19b, 3-((1-(2,4-dichlorobenzoyl)pyrrolidin-3-yl)methyl)-2-oxo-2,3-dihydro-1H-benzo[d]imidazole-5-carboxylic acid] | –
